This assay has as its target T1, human liver glycogen phosphorylase a (HLGPa) (Homo sapiens, UniProt P06737).
T1 construct: creating a full-length cDNA fused at the 5′ end to codons for methionine-glycine-alanine-histidine; 6xHis tag (leader Met-Gly-Ala-His6-Gly-Gly) (N); made in house; host or cells: E. coli (bacterial expression plasmid pTXK1007LTev)
T1 sequence (P06737 2-847 limits assumed): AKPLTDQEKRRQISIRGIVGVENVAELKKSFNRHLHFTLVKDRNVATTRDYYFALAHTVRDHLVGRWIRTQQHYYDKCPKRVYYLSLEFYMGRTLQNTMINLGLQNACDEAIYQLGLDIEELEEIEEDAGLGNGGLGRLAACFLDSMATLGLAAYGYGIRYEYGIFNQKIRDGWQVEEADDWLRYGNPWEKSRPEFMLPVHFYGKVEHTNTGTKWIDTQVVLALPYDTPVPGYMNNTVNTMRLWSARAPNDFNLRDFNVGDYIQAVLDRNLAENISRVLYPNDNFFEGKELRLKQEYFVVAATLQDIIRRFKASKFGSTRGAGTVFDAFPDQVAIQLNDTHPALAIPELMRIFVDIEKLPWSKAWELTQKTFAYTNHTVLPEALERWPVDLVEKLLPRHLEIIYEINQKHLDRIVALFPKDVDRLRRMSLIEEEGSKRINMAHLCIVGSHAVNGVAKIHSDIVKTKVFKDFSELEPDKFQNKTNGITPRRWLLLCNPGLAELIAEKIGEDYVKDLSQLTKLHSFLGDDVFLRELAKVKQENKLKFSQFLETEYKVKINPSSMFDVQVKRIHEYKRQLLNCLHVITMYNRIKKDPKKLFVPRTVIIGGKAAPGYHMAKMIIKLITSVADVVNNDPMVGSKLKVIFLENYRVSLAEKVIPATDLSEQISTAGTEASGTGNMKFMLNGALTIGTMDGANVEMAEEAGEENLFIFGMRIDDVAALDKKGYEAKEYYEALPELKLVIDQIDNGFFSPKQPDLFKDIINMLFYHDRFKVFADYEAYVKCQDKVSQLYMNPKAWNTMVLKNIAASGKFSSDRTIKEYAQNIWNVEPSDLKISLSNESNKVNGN
Kind of assay: Human liver glycogen phosphorylase a enzymatic activity assay (coupled, fluorescent resorufin readout, with and without 10 mM glucose). In kind it is biochemical. The note with it: human liver glycogen phosphorylase a enzymatic activity assay.

What is called IC50 is the concentration that inhibits the measured activity by half. A higher IC50 goes with weaker potency in that assay.

`Cc1cccc(Cl)c1NC(=O)Nc1cc2ccccc2cc1C(=O)N[C@@H](CC(=O)O)C(=O)O` [Example 84, N-[3-({[(2-chloro-6-methylphenyl)amino]carbonyl}amino)-2-naphthoyl]-L-aspartic acid] came in with an IC50 of 0.39 µM.

As for `Cc1cccc(Cl)c1NC(=O)Nc1cc2ccccc2cc1C(=O)NCC(=O)O` [Example 85, N-[3-({[(2-chloro-6-methylphenyl)amino]carbonyl}amino)-2-naphthoyl]glycine], the IC50 was determined as 0.57 µM.

In the case of `Cc1cccc(Cl)c1NC(=O)Nc1cc2ccccc2cc1C(=O)N[C@@H](CCC(=O)O)C(=O)O` [Example 86, N-[3-({[(2-chloro-6-methylphenyl)amino]carbonyl}amino)-2-naphthoyl]-L-glutamic acid], the IC50 worked out at 0.7 µM.

The compound `Cc1cccc(Cl)c1NC(=O)Nc1ccccc1C(=O)N[C@@H](CC(=O)O)C(=O)O` [Example 87, N-[2-({[(2-chloro-6-methylphenyl)amino]carbonyl}amino)benzoyl]-L-aspartic acid] returned an IC50 of 24.5 µM.

Regarding `Cc1cccc(Cl)c1NC(=O)Nc1cc(Cl)ccc1C(=O)N[C@@H](CC(=O)O)C(=O)O` [Example 88, N-[4-chloro-2-({[(2-chloro-6-methylphenyl)amino]carbonyl}amino)benzoyl]-L-aspartic acid], the IC50 turned out to be 5.2 µM.

With `Cc1cccc(Cl)c1NC(=O)Nc1ccc(I)cc1C(=O)N[C@@H](CC(=O)O)C(=O)O` [Example 89, N-[2-({[(2-chloro-6-methylphenyl)amino]carbonyl}amino)-5-iodobenzoyl]-L-aspartic acid], the IC50 stood at 17.4 µM.

With `O=C(O)C[C@H](NC(=O)c1cc2ccccc2cc1NC(=O)Nc1ccccc1Br)C(=O)O` [Example 90, N-[3-({[(2-bromophenyl)amino]carbonyl}amino)-2-naphthoyl]-L-aspartic acid], the IC50 stood at 22.9 µM.

`Cc1cccc(Cl)c1NC(=O)Nc1cc2ccccc2cc1C(=O)N[C@@H](Cc1ccc(Br)cc1)C(=O)O` [Example 91, 4-bromo-N-[3-({[(2-chloro-6-methylphenyl)amino]carbonyl}amino)-2-naphthoyl]-L-phenylalanine] had an IC50 of 7.88 µM.

In turn, `CCc1cccc(CC)c1NC(=O)Nc1cc2ccccc2cc1C(=O)N[C@H](C(=O)O)C1CCCCC1` [Example 93, (2S)-cyclohexyl({[3-({[(2,6-diethylphenyl)amino]carbonyl}amino)-2-naphthalenyl]carbonyl}amino)ethanoic acid] came in with an IC50 of 0.59 µM.

`Cc1cccc(C)c1NC(=O)Nc1ccccc1C(=O)N[C@H](C(=O)O)C1CCCCC1` [Example 94, (2S)-cyclohexyl{[2-({[(2,6-dimethylphenyl)amino]carbonyl}amino)benzoyl]amino}acetic acid] came in with an IC50 of 0.53 µM.

As for `Cc1ccccc1NC(=O)Nc1cc2ccccc2cc1C(=O)NC(C(=O)O)c1ccccc1` (stereo not drawn) [Example 95, {[3-({[(2-methylphenyl)amino]carbonyl}amino)-2-naphthoyl]amino}(phenyl)acetic acid], the midpoint of inhibition, the IC50, lay at 9.89 µM.

On to `Cc1ccccc1NC(=O)Nc1cc2ccccc2cc1C(=O)N[C@@H](Cc1cccs1)C(=O)O` [Example 96, N-{[3-({[(2-methylphenyl)amino]carbonyl}amino)-2-naphthalenyl]carbonyl}-3-(2-thienyl)-L-alanine], for which the IC50 came to 5.07 µM.

`Cc1cccc(C)c1NC(=O)Nc1cc2ccccc2cc1C(=O)NC(C(=O)O)c1ccccc1` (stereo not drawn) [Example 97, {[3-({[(2,6-dimethylphenyl)amino]carbonyl}amino)-2-naphthoyl]amino}(phenyl)acetic acid] returned an IC50 of 0.66 µM.

In the case of `Cc1cccc(C)c1NC(=O)Nc1cc2ccccc2cc1C(=O)N[C@@H](Cc1cccs1)C(=O)O` [Example 98, N-{[3-({[(2,6-dimethylphenyl)amino]carbonyl}amino)-2-naphthalenyl]carbonyl}-3-(2-thienyl)-L-alanine], 0.54 µM corresponded to half-maximal inhibition (IC50).

Compound `Cc1cccc(C)c1NC(=O)Nc1cc2ccccc2cc1C(=O)N[C@@H](CC1CCCCC1)C(=O)O` [Example 99, 3-cyclohexyl-N-[3-({[(2,6-dimethylphenyl)amino]carbonyl}amino)-2-naphthoyl]-L-alanine] showed an IC50 of 0.49 µM.

As to `O=C(Nc1ccccc1Cl)Nc1cc2ccccc2cc1C(=O)NC(C(=O)O)c1ccccc1` (stereo not drawn) [Example 100, {[3-({[(2-chlorophenyl)amino]carbonyl}amino)-2-naphthoyl]amino}(phenyl)acetic acid], the IC50 worked out at 7.63 µM.

`O=C(Nc1ccccc1Cl)Nc1cc2ccccc2cc1C(=O)N[C@@H](Cc1cccs1)C(=O)O` [Example 101, N-{[3-({[(2-chlorophenyl)amino]carbonyl}amino)-2-naphthalenyl]carbonyl}-3-(2-thienyl)-L-alanine] had an IC50 of 2.78 µM.

On to `Cc1cccc(Cl)c1NC(=O)Nc1cc2ccccc2cc1C(=O)N[C@@H](Cc1cccs1)C(=O)O` [Example 102, N-{[3-({[(2-chloro-6-methylphenyl)amino]carbonyl}amino)-2-naphthalenyl]carbonyl}-3-(2-thienyl)-L-alanine], for which it took 0.36 µM to reach half-maximal inhibition (IC50).

Take `Cc1cc(C)c(NC(=O)Nc2cc3ccccc3cc2C(=O)NC(C(=O)O)c2ccccc2)c(C)c1` (stereo not drawn) [Example 103, Phenyl({[3-({[(2,4,6-trimethylphenyl)amino]carbonyl}amino)-2-naphthalenyl]carbonyl}amino)acetic acid]: the midpoint of inhibition, the IC50, lay at 0.06 µM.

`Cc1cccc(C(C)C)c1NC(=O)Nc1cc2ccccc2cc1C(=O)NC(C(=O)O)c1ccccc1` (stereo not drawn) [Example 104, {[3-({[(2-isopropyl-6-methylphenyl)amino]carbonyl}amino)-2-naphthoyl]amino}(phenyl)acetic acid] showed an IC50 of 1.04 µM.

`COc1cc(NC(=O)Nc2c(C)cccc2C)c(C(=O)NC(C(=O)O)c2ccccc2)cc1OC` (stereo not drawn) [Example 105, {[2-({[(2,6-dimethylphenyl)amino]carbonyl}amino)-4,5-dimethoxybenzoyl]amino}(phenyl)acetic acid]: the IC50 came to 19.6 µM.

`COc1cc(NC(=O)Nc2c(C)cc(C)cc2C)c(C(=O)NC(C(=O)O)c2ccccc2)cc1OC` (stereo not drawn) [Example 106, [(2-{[(mesitylamino)carbonyl]amino}-4,5-dimethoxybenzoyl)amino](phenyl)acetic acid] registered an IC50 of 4.23 µM.

`COc1cc(NC(=O)Nc2c(C)cccc2Cl)c(C(=O)NC(C(=O)O)c2ccccc2)cc1OC` (stereo not drawn) [Example 107, {[2-({[(2-chloro-6-methylphenyl)amino]carbonyl}amino)-4,5-dimethoxybenzoyl]amino}(phenyl)acetic acid]: inhibition was half-maximal at 12.2 µM (IC50).

The compound `Cc1cccc(C(C)C)c1NC(=O)Nc1cc2ccccc2cc1C(=O)N[C@@H](C(=O)O)C1CCCCC1` [Example 109, (2R)-cyclohexyl{[3-({[(2-isopropyl-6-methylphenyl)amino]carbonyl}amino)-2-naphthoyl]amino}acetic acid] registered an IC50 of 19.8 µM.

On to `Cc1cccc(Cl)c1NC(=O)Nc1cc(F)c(F)cc1C(=O)N[C@H](C(=O)O)C1CCCCC1` [Example 112, (2S)-{[2-({[(2-chloro-6-methylphenyl)amino]carbonyl}amino)-4,5-difluorobenzoyl]amino}(cyclohexyl)acetic acid], for which 0.86 µM corresponded to half-maximal inhibition (IC50).

For the compound `COc1cc(NC(=O)Nc2c(C)cccc2Cl)c(C(=O)N[C@H](C(=O)O)C2CCCCC2)cc1OC` [Example 113, (2S)-{[2-({[(2-chloro-6-methylphenyl)amino]carbonyl}amino)-4,5-dimethoxybenzoyl]amino}(cyclohexyl)acetic acid], 7.04 µM corresponded to half-maximal inhibition (IC50).

`Cc1cccc(Cl)c1NC(=O)Nc1cc(F)c(F)cc1C(=O)N[C@@H](CC1CCCCC1)C(=O)O` [Example 114, N-[2-({[(2-chloro-6-methylphenyl)amino]carbonyl}amino)-4,5-difluorobenzoyl]-3-cyclohexyl-L-alanine] showed an IC50 of 18.7 µM.

`COc1cc(NC(=O)Nc2c(C)cccc2Cl)c(C(=O)N[C@@H](CC2CCCCC2)C(=O)O)cc1OC` [Example 115, N-[2-({[(2-chloro-6-methylphenyl)amino]carbonyl}amino)-4,5-dimethoxybenzoyl]-3-cyclohexyl-L-alanine] showed an IC50 of 13 µM.

As for `Cc1cccc(C)c1NC(=O)Nc1cc(F)c(F)cc1C(=O)N[C@H](C(=O)O)C1CCCCC1` [Example 116, (2S)-cyclohexyl{[2-({[(2,6-dimethylphenyl)amino]carbonyl}amino)-4,5-difluorobenzoyl]amino}acetic acid], half-maximal inhibition (IC50) was put at 1.63 µM.

In turn, `COc1cc(NC(=O)Nc2c(C)cccc2C)c(C(=O)N[C@H](C(=O)O)C2CCCCC2)cc1OC` [Example 117, (2S)-cyclohexyl{[2-({[(2,6-dimethylphenyl)amino]carbonyl}amino)-4,5-dimethoxybenzoyl]amino}acetic acid] displayed an IC50 of 14.7 µM.

(Values after patent publication US20070249670A1, “Glycogen Phosphorylase Inhibitor Compounds and Pharmaceutical Compositions Thereof” (SMITHKLINE BEECHAM CORPORATION, priority 2004, published 2007).)
